pKi: −log10 of the molar value.

The source of these data is ChEMBL document CHEMBL1138919, “Binding of methoxy-substituted N1-benzenesulfonylindole analogs at human 5-HT6 serotonin receptors” (Bioorg Med Chem Lett, 2006).

Sequence of 5-hydroxytryptamine receptor 6 (P50406 whole entry): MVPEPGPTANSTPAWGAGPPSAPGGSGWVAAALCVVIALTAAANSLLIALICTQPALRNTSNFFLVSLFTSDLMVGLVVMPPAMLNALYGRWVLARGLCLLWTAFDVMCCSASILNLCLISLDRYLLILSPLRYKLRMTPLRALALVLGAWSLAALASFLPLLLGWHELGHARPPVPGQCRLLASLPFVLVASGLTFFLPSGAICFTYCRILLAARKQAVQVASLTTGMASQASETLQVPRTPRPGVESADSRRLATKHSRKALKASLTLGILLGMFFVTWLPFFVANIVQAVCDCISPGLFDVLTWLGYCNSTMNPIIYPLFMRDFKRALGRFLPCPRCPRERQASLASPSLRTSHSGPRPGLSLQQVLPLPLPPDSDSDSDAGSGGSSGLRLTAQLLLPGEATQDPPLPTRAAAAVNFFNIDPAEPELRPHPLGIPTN

This test has as its target 5-hydroxytryptamine receptor 6 (Homo sapiens, UniProt P50406). Briefly: Binding affinity to human 5HT6 receptor.
By pKi is commonly meant the Ki on a negative log10 scale, so that one unit is a factor of ten. A low value points to a large Ki. Take `COc1ccc2ccn(S(=O)(=O)c3ccc(N)cc3)c2c1`: the pKi is 8.74.
The figure for `COc1cc(OC)c2ccn(S(=O)(=O)c3ccc(N)cc3)c2c1` is 9.10.
To `CNc1ccc2c3c(n(S(=O)(=O)c4ccc(N)cc4)c2c1)CCCC3` belongs 6.69; to `CNc1cccc2c1c1c(n2S(=O)(=O)c2ccc(N)cc2)CCCC1`, 6.78; to `COc1cc(OC)c2c3c(n(S(=O)(=O)c4ccc(N)cc4)c2c1)CCCC3`, 6.68.
Turning to `COc1cccc2c1ccn2S(=O)(=O)c1ccc(N)cc1`, the pKi is 8.48.
